Reference: ChEMBL document CHEMBL2412962, “Human acidic mammalian chitinase as a novel target for anti-asthma drug design using in silico screening” (Bioorg Med Chem, 2013)

Molecular target: Acidic mammalian chitinase (Homo sapiens, UniProt Q9BZP6)
Test: Inhibition of His-tagged recombinant human acidic mammalian chitinase expressed in Escherichia coli Rosetta-gami 2 (DE3) using 4MU-(GlcNAc)2 as substrate assessed as production of 4-methylumbelliferone measured every 5 mins by fluorescence assay

Chain of Acidic mammalian chitinase (Q9BZP6 whole entry): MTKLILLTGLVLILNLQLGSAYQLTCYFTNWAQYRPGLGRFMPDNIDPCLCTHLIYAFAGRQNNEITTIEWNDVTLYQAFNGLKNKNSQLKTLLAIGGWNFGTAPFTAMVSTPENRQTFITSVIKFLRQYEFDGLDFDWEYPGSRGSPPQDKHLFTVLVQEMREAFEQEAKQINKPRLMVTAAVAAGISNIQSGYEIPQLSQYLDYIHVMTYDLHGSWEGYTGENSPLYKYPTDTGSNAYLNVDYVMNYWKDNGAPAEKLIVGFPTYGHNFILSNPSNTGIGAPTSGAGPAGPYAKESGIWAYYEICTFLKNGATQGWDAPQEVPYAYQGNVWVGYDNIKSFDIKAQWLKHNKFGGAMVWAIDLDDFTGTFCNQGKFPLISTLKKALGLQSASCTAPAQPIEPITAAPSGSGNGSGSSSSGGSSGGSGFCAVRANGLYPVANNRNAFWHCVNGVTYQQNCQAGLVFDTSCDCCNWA

In the case of CN=C(S)NNC(=O)c1oc2nc(-c3ccccc3)cc(C)c2c1N, the IC50 is reported as 30 µM.
